Like-named read-outs stand apart in the source and are kept apart here.
Assays:
[1] = test system: mast cell burden in patients with AdvSM; experiment: Changes in measures of mast cell burden (BM mast cells, serum tryptase, spleen volume); format: in vivo, human
Description: (§1) Other secondary endpoints included PK, DOR and changes in measures of mast cell burden (percentage of BM mast cells, serum tryptase concentration, KIT D816V VAF by ddPCR (detection limit 0.17%), and spleen and liver volumes). PROs were measured by daily completion of AdvSM-SAF (described below) for patients in part 2 as a secondary outcome[37]–[39]. Exploratory endpoints included time to response, PFS and OS.
The percentage change from baseline in spleen and liver volume as measured by central radiographic assessment using an MRI or a CT scan was summarized over time in the safety population. In addition, maximum percentage reduction was presented in waterfall plots.
(§2) Responses were assessed according to the protocol schedule. Spleen size was assessed by palpation and by imaging with calculation of volume centrally. KIT D816V VAF in the BM (or in blood if unavailable) was centrally measured using a validated ddPCR assay with a lower limit of detection of 0.17% (Bio-Rad). Other somatic mutations in BM were centrally assayed at baseline by next-generation sequencing.

[2] = test system: KIT D816V variant allele fraction; experiment: KIT D816V variant allele fraction in BM by central ddPCR; format: in vivo, human; conditions: for Complete elimination of measurable KIT D816V VAF, patients: post hoc
Description: as §1, §2

[3] = test system: advanced systemic mastocytosis (AdvSM); experiment: Kaplan–Meier estimates of DOR, PFS and OS; format: in vivo, human
Description: Spleen response was determined for patients with baseline splenomegaly (spleen ≥ 5 cm by palpation) and was assessed by palpation or spleen volume by imaging (that is, ≥35% reduction from baseline in spleen volume based on central imaging); presence of either criterion was considered a response. DOR started at the first evidence of a response in any evaluable C-finding (per mIWG-MRT-ECNM criteria) and ended at the time a response was lost (that is, loss of response per mIWG-MRT-ECNM criteria). For patients who were still responding at the time of analysis, DOR was censored at the latest time point that the patient is assessed as having clinical improvement or better. OS was analyzed in the safety population and was defined as the time from first dose to the time of death due to any cause. PK data were summarized for patients with sufficient plasma concentration–time data. Descriptive statistics were used to summarize PK parameters for each dose level, as appropriate.
ORR was defined as the proportion of patients with a confirmed best response of CR, CRh, PR or clinical improvement by mIWG-MRT-ECNM consensus criteria. Time to CR/CRh/PR was defined as the time from the start of treatment to the time a CR/CRh/PR by mIWG-MRT-ECNM was first met. DOR was defined as the time from first documented response to the date of first documented progressive disease/loss of response or death due to any cause, whichever occurred first. OS was defined as the time from the start of treatment to the date of death. PFS was defined as the time from the start of treatment to the date of first documented progressive disease or death due to any cause, whichever occurred first. Progressive disease was defined per mIWG-MRT-ECNM criteria as worsening of ≥1 baseline C-finding confirmed for at least 4 weeks, or progression to acute myeloid leukemia.
OS, PFS and DOR were determined by Kaplan–Meier estimates, and 95% CIs were estimated using Greenwood’s formula[41]. Comparisons between two Kaplan–Meier functions was performed using a log-rank test.

[4] = Plasma pharmacokinetics, non-compartmental analysis; format: in vivo, human
Description: On D1 and D15 of C1, blood samples for PK analysis were collected before the dose, and 0.5, 1, 2, 4, 8 and 24 h (C1D1 only) after the dose. C2D1 pre-dose concentration was used as the C1D15 24-h concentration for PK analysis. Additional pre-dose samples were collected on D1 of C3 and C4. Avapritinib PK parameters were obtained by non-compartmental analysis of the plasma concentration data versus nominal time using Phoenix WinNonlin© (version 8.0, Certara).
Plasma concentration–time profiles across dose levels and dose versus systemic exposure (Cmax and AUC) relationships were assessed graphically. Systemic exposure parameters of interest included the arithmetic and geometric mean, Cmax and AUC, and 90% CIs.

AdvSM symptom burden = experiment: Patient-reported outcomes: AdvSM-SAF total symptom score; format: in vivo, human; conditions: C11; P = 0.002, n = 20; baseline 19.1 points (n = 40)
Text: The AdvSM-SAF comprises a ten-item questionnaire completed by the patient daily, specifically designed to assess symptoms related to AdvSM and measure the impact of treatments on patient symptom improvement. […] The AdvSM-SAF assesses the severity of eight symptoms of AdvSM, including abdominal pain, nausea, vomiting, diarrhea, spots, itching, flushing and fatigue over a 24-h period on a numerical rating scale, and also measures the frequency of vomiting and diarrhea by asking patients to enter a discrete numerical value. Data were analyzed at the item level, domain level and total score level. Domain level analyses are: • Gastrointestinal symptoms score (abdominal pain, nausea, vomiting and diarrhea severity (range 0–40)) • Skin symptom score (spots, itching and flushing severity (range 0–30))
The TSS was achieved by summing all eight severity items (range 0–80).

SM-associated symptoms = experiment: On-study corticosteroid usage; format: in vivo, human
Description: At baseline, approximately one-third of patients overall (29 patients; 34%) were using corticosteroids. After baseline, as a result of improvement in SM-associated symptoms, 19 patients (66%) reduced their corticosteroid usage, of whom 12 (41%) patients discontinued corticosteroid use entirely, while 7 (24%) were able to reduce the dose.
Corticosteroid treatment, not exceeding doses administered during screening, was permitted; doses higher than 20 mg daily prednisone equivalent were avoided, and prolonged treatment (>14 d) with high-dose corticosteroids rendered patients ineligible for response assessment.

KIT D816V = test system: KIT D816V; set-up: method as in PMID 29093181; conditions: immunoblot in a xenograft model; cited from earlier work

Cn1cc(-c2cc3c(N4CCN(c5ncc([C@@](C)(N)c6ccc(F)cc6)cn5)CC4)ncnn3c2)cn1 [avapritinib]
Patients with spleen volume reduced by ≥35% ([1]; 66 patients with a baseline spleen volume assessment): 82% | Patients with BM mast cells decreased by ≥50% ([1]; patients with AdvSM): 92% | Patients with mast cell aggregates eliminated ([1]; patients with AdvSM): 77% | Patients with serum tryptase reduced by ≥50% ([1]; patients with AdvSM): 99% | Patients with serum tryptase reduced to <20 ng ml^−1 ([1]; patients with AdvSM): 74% | Patients with KIT D816V VAF in BM reduced from baseline by ≥50% ([2]; patients with AdvSM, ddPCR): 80% | Patients in whom KIT D816V VAF in BM became undetectable ([2]; patients with AdvSM, ddPCR limit of detection 0.17%): 30% | Complete elimination of measurable KIT D816V VAF, patients ([2]; best response CR (n = 8)): 63% | Complete elimination of measurable KIT D816V VAF, patients ([2]; best response CRh (n = 8)): 50% | Complete elimination of measurable KIT D816V VAF, patients ([2]; best response PR (n = 13)): 23% | Complete elimination of measurable KIT D816V VAF, patients ([2]; clinical improvement (n = 2) or stable disease (n = 11)): 15% | Median duration of response (DOR) ([3]; 95% CI, 22 months–not estimable): 38 months | Estimated 24-month DOR rate ([3]; 95% CI, 49–84%): 67% | Estimated 12-month DOR rate ([3]; 95% CI, 72–96%): 84% | Median OS ([3]; AdvSM safety population (n = 69), median follow-up 23 months): not reached | Estimated 24-month OS rate ([3]; overall AdvSM, 95% CI, 64–87%): 76% | Estimated 24-month OS rate ([3]; patients with ASM): 100% | Estimated 24-month OS rate ([3]; patients with MCL, 95% CI, 76–100%): 92% | Estimated 24-month OS rate ([3]; patients with SM-AHN): 67% | OS (24-month OS rate) ([3]; patients with a MARS of 0–1, post hoc): 100% | Estimated PFS rate at 24 months ([3]; response-evaluable population (n = 53), 95% CI, 48–79%): 63% | Estimated PFS rate at 12 months ([3]; response-evaluable population (n = 53), 95% CI, 73–94%): 84% | Patients who progressed to acute myeloid leukemia ([3]; six patients, during the study): 9% | Time at which steady state was reached ([4]; QD dosing): ≤ 15 days | half-life ([4]; human, plasma, oral, Cycle 1 Day 15, read-out: Steady state t½): > 20 h | half-life ([4]; human, plasma, oral, range across doses, read-out: Mean plasma elimination half-life): 19.8 to 38.3 h | AUC ([4]; human, plasma, oral, 200 mg QD, C1 D15, CV 54.2%, n = 16, read-out: Steady-state geometric mean AUC0-τ): 7340 ng·h/mL | Cmax ([4]; human, plasma, oral, 200 mg QD, C1 D15, CV 62.2%, n = 18, read-out: Steady-state geometric mean maximum plasma concentration (Cmax)): 433 ng/mL | Tmax ([4]; human, plasma, single oral doses of 30 to 400 mg, read-out: Time to maximum plasma concentration (Tmax)): 2 to 4 h | Mean change from baseline AdvSM-SAF TSS (AdvSM symptom burden): −10.9 points | Patients able to reduce the corticosteroid dose (SM-associated symptoms; 7 of 29 patients using corticosteroids at baseline): 24% | Patients who discontinued corticosteroid use entirely (SM-associated symptoms; 12 of 29 patients using corticosteroids at baseline): 41% | Patients who reduced their corticosteroid usage (SM-associated symptoms; 19 of 29 patients using corticosteroids at baseline): 66% | In vivo IC90 for inhibition of KIT D816V in xenograft model (KIT D816V): 0.189 µg/mL

Source: paper PMC8674134, “Safety and efficacy of avapritinib in advanced systemic mastocytosis: the phase 1 EXPLORER trial” (Nature Medicine, 2021)
